Results reported in US7332489B2, “Methods and compositions of novel triazine compounds” (Reddy US Therapeutics, Inc., priority 2003, dated 2008).
Read-outs that look alike come from different tables or passages of the source.

Assays:
TNF-α induced IL-6 = assay: TNF-α-induced IL-6 production determined by IL-6 ELISA; type: cell-based; details: for % IL6 production compare to TNF stimulation of IL6 (100%), HAEC, IL6, @ 5 uM / % IL6 production compare to TNF stimulation of IL6 (100%), Compds tested @ 10 uM HAEC, IL6: TNF stimulated; for % IL6 production compare to TNF stimulation of IL6 (100%), HAEC, IL6, @ 5 uM: compound 5 uM (bracketed value); for % IL6 production compare to TNF stimulation of IL6 (100%), Compds tested @ 10 uM HAEC, IL6: compound 10 uM
Method in brief: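 Human aortic endothelial cells grown to ≥90% confluence, then treated with compounds and stimuli in serum-free medium with 0.2% albumin. Secreted IL-6 in collected media measured by sandwich ELISA (2 ug/ml capture, 200 ng/ml biotinylated detection antibody, streptavidin-HRP), read at 450 nm.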

[1] = system: Human aortic smooth muscle cells; details: 24 h
Method: Human aortic smooth muscle cells (Clonetics) were used. Cells were grown in basal medium containing 5% fetal bovine serum supplemented with growth factors, basic fibroblast growth factor, epidermal growth factor and insulin. […] The cells were then serum starved for 24 h to induce quiescence. Fresh growth medium containing no compound or 10 μM compound was then added and further incubated for 24 h. Cell number was determined by using a cell proliferation assay kit (Celltiter96 AQueous from Promega).

G-HSA induced IL-6 = assay: AGE-induced inflammatory response determined by IL-6 ELISA (glycated human serum albumin stimulus); type: cell-based; details: 24 h, read-out: % IL6 production compare to AGE stimulation of IL6 (100%), Compds tested @ 10 uM HAEC, IL6
Method: Human aortic endothelial cells (HAEC, Clonetics) were cultured according to manufacturer in growth medium (Clonetics): basal medium containing human epidermal growth factor, hydrocortisone, vascular endothelial growth factor, heparin binding growth factor-B, long R3-insulin-like growth factor-1, ascorbic acid, gentamicin/amphotericin and 5% FBS. These cell were allowed to reach at least 90% confluency before subjected to experimental treatments. Glycated human serum albumin (G-HSA) was from US Biologicals. Tumor necrosis factor α was from R&D Systems.
Endothelial cells were treated with control medium or medium containing 10 to 100 ng/ml TNF-α or 300 μg/ml glycated-HAS (treated cells or treatments) for 24 hrs, in control and compound-added duplicates, containing 10 μM compound. All treatments, compound-added and controls were carried out in serum free media containing 0.2% albumin. Media from all conditions were collected and used for IL-6 ELISA.
IL-6 ELISA was carried out using human IL-6 DuoSet ELISA development kit as described by manufacturer (R&D Systems). Mouse anti-human Il-6 was used as the capture antibody (2 ug/ml) and biotinylated goat anti-human IL-6 (200 ng/ml) was used as the detection antibody. Culture media were incubated with capture antibody (in 96 well) for 2 h at room temperature. […] Color development was read at 450 nm in a Microplate reader.

cells = assay: Cytotoxicity/Lactate Dehydrogenase assay; type: cell-based; details: toxic or cause cell death; concentrations (uM) given
Method: An appropriate number of cells are plated in four 96-well plates, one plate for “day 0” and three plates for days 1-3. Cells are treated with at least one compound of the present invention in varying concentrations with and without the apoptosis inducer cisplatin (2 μM) (“+cis” or “-cis”). Unteated cells are also assayed with and without cisplatin. After transfection, the plates are incubated at 37° C. overnight.
An appropriate number of cells are plated in four 96-well plates, one plate for “day 0” and three plates for days 1-3. Cells are treated with at least one compound of the present invention in varying concentrations. The negative control cells have normal media conditions, a duplicate set of wells is treated with the composition in which the compound is provided, but there is no added compound and the positive control cells are treated with the apoptosis inducer cisplatin (2 μM). All of the cells are transfected with a vector having a promoter that is responsive to apoptosis conditions. When apoptosis occurs, the promoter is turned on and the lactic dehydrogenase gene is activated and the enzyme protein is made and active. Activity is easily detected with a color change. After transfection, the plates are incubated at 37° C. overnight.
About 8 mls of warmed alpha MEM LDH lysis buffer (2% Triton X100) and about 8 mls of culture media (1/2 dilution) are combined. Two 96-well v-bottom plates are prepared, one labeled “lysis” and one labeled “supernatant.” To lyse the cells, about 200 μl Alpha MEM lysis buffer (diluted 1/2) is added to one test plate from which the supernatant has been removed and added to the plate labeled supernatant. After mixing, about 200 μl of lysed cells are transferred to the lysis plate. Both the lysis and supernatant plates are centrifuged at about 1600 rpm for about 10 min. After centrifugation, about 100 μl of both the supernatant or lysate is transferred to corresponding 96-well flat-bottomed plates.
The assay for cytotoxicity uses the Cytotoxicity Detection Kit (LDH) from Roche Diagnostics Corp. (Indianapolis, Ind.). Using the directions provided, the dye solution is mixed and added each well of the lysate and supernatant plate and incubated for up to 20-25 min at 15-25° C. in the dark.

endothelial cells = assay: Toxicity to endothelial cells when AGE stimulated; type: cell-based
Method: In general, to determine if there is cytotoxic activity associated with a compound, cells of a particular type, in a growing stage or a quiescient stage, are treated with the compound of interest. Various parameters of cell death or cessation are used to measure the effects of the compound. For example, the amount of nucleic acid or protein synthesis can be measured or visual observation of the state of the cells, such as release from the substrate, can be used to measure the state of the cells.
All treatments, compound-added and controls were carried out in serum free media containing 0.2% albumin. Media from all conditions were collected and used for IL-6 ELISA.

## CN1CCC(N(C)c2nc(Nc3ccc(OCc4ccccc4)c(Cl)c3)nc(NC3CCCCCC3)n2)CC1
TNF-α induced IL-6
  Inflammation Data, activity in words at 1 uM: Not active
TNF-α induced IL-6; 5 uM
  Inflammation Data, activity in words at 5 uM: Not active
  Inflammation Data, cell death at 5 uM: 30%
TNF-α induced IL-6; 10 uM
  Inflammation Data, cell death at 10 uM: totaldeath
[1]
  Proliferation Data, cell death: no celldeath
  Proliferation Data, cell morphology (rounding, blunting, morphology change): cell morphologychange at 5 & 10 uM

## CN(c1nc(Nc2ccc(OCc3ccccc3)c(Cl)c2)nc(NC2CCCCCC2)n1)C1CCNCC1
TNF-α induced IL-6
  Inflammation Data, activity in words at 1 uM: not active
TNF-α induced IL-6; 5 uM
  Inflammation Data, cell death at 5 uM: 50%
TNF-α induced IL-6; 10 uM
  Inflammation Data, cell death at 10 uM: total cell death
[1]
  Proliferation Data, cell death: celldeath at 10 uM
  Proliferation Data, cell morphology (rounding, blunting, morphology change): cell morphologychange at 7.5 uM

## CCN1CCCC1CNc1nc(Nc2scc(C)c2C(N)=O)nc(NC2CCCCCC2)n1 (centres unmarked) [Compound 39, 2-[(4-(cycloheptylamino)-6-{[(1-ethyl-2-pyrrolidinyl)methyl]amino}-1,3,5-triazin-2-yl)-amino]-4-methyl-3-thiophenecarboxamide]
G-HSA induced IL-6; HAEC, 10 uM compound, AGE stimulation = 100%
  activity at 10 µM: 26%
TNF-α induced IL-6; Homo sapiens, 24 h, Table 5, second part, column 1, class = % of control IL6 production, read-out: Inhibition of TNF-induced IL6, production
  activity at 10 µM: 25 to 50%

## COc1ccc(Nc2nc(Nc3ccc(OC)c(Cl)c3)nc(N(C)C3CCN(C)CC3)n2)cc1Cl [Compound 121, N,N′-Bis-(3-chloro-4-methoxy-phenyl)-N″-methyl-N″-(1-methyl-piperidin-4-yl)-[1,3,5]triazine-2,4,6-triamine]
TNF-α induced IL-6
  % IL6 production compare to TNF stimulation of IL6 (100%), HAEC, IL6, @ 5 uM: [50 @ 5 uM, but some %
  % IL6 production compare to TNF stimulation of IL6 (100%), Compds tested @ 10 uM HAEC, IL6: total cell death @ 10 uM
TNF-α induced IL-6; human, 24 h, 5 µM
  toxicity @ 5 uM: toxicity (~20%)]
cells
  Toxicity: Toxic by toxicityassay at 0.75 uM.Starts blunting by1 uM and rounding by5 uM
Endothelial cells
  Toxic (AGE-treated): toxic

## CCN1CCCC1CNc1nc(Nc2ccc(OC)c(Cl)c2)nc(NC2CN3CCC2CC3)n1 (centres unmarked) [Compound 148, N-(1-Aza-bicyclo[2.2.2]oct-3-yl)-N′-(3-chloro-4-methoxy-phenyl)-N″-(1-ethyl-pyrrolidin-2-ylmethyl)-[1,3,5]triazine-2,4,6-triamine]
TNF-α induced IL-6
  % IL6 production compare to TNF stimulation of IL6 (100%), HAEC, IL6, @ 5 uM: 60%
  % IL6 production compare to TNF stimulation of IL6 (100%), Compds tested @ 10 uM HAEC, IL6: total cell death
Endothelial cells
  Toxic (AGE-treated): toxic

## COc1ccc(Nc2nc(NC3CCCCCC3)nc(N(C)C3CCNCC3)n2)cc1F [Compound 159, N^2-Cycloheptyl-N^4-(3-fluoro-4-methoxy-phenyl)-N^6-methyl-N^6-piperidin-4-yl-1,3,5-triazine-2,4,6-triamine]
TNF-α induced IL-6
  % IL6 production compare to TNF stimulation of IL6 (100%), HAEC, IL6, @ 5 uM: total cell death @ 5 and 10
  % IL6 production compare to TNF stimulation of IL6 (100%), Compds tested @ 10 uM HAEC, IL6: total cell death @ 5 and 10
Endothelial cells
  Toxic (AGE-treated): toxic

## CN1CCC(N(C)c2nc(Nc3ccc4ccccc4c3)nc(NC3CC3)n2)CC1 [Compound 180, N-Cyclopropyl-N′-methyl-N′-(1-methyl-piperidin-4-yl)-N″-naphthalen-2-yl-[1,3,5]tri-azine-2,4,6-triamine]
G-HSA induced IL-6
  activity at 10 µM: 5%
TNF-α induced IL-6; Homo sapiens, 24 h, read-out: Inhibition of TNF-induced IL6 production, Table 7, first part
  inhibition at 10 µM: 85 to 100%
TNF-α induced IL-6; Homo sapiens, 24 h, read-out: Inhibition of TNF-induced IL6 production, Table 7, second part, column 1
  inhibition at 10 µM: 50 to 65%

## CN1CCC(N(C)c2nc(Nc3ccc(O)c(Cl)c3)nc(NC3CCCCCC3)n2)CC1 [drawing 1613]
TNF-α induced IL-6; human, 24 h, 10 µM
  Inflammation Data, cell death at 10 uM: total cell death
[1]
  Proliferation Data, cell morphology (rounding, blunting, morphology change): cell bluntingat 3 to 10 uM
